Publication PMC9356275, “A quantitative high-throughput screen identifies compounds that lower expression of the SCA2-and ALS-associated gene ATXN2” (The Journal of Biological Chemistry, 2022)
Where a name gives a salt, the structure may show the parent alone. Read-outs that look alike come from different tables or passages of the source.

What was measured:
ATXN2-luc [1] = assay: MSSR pilot screen: ATXN2-luc luciferase assay (Bright-Glo) in H2 cells, single 10 μM dose; type: cell-based, human; conditions: H2 cells, single dose (title: 10 μM compound), overnight
ATXN2-luc [2] = assay: NCATS qHTS (LOPAC pilot, primary and confirmation): ATXN2-luc in S2 cells, 1536-well, Steady-Glo; type: cell-based, human; conditions: for Efficacy / Inf Activity: curve-fit parameter
Experimental: We next performed a pilot screen assay to optimize the 1536-well qHTS using S2 cells. […] Cytotoxicity was determined using a multiplexed viability assay (CellTiter-Fluor, a fluorescence-based viability assay using Gly-Phe-7-amino-4-trifluoromethylcoumarin substrate).
CellTiter-Fluor was used to determine compound effect on cell viability, and Steady-Glo was used to measure luciferase in a multiplexed assay.
The primary assay was conducted at the NCATS NIH Chemical Genomics Center laboratory. About 4 μl of S2 cell suspension in phenol red–free DMEM was dispensed into wells of 1536-well assay plates. […] Next, SteadyGlo luciferase substrate detection reagent (3 μl) was added to each well and incubated for an additional 5 min at room temperature. Luminescence was then measured on the ViewLux imager equipped with clear filters using a 2 s exposure. All screening operations were performed on a fully integrated robotic system (Kalypsys) containing one RX-130 and two RX-90 anthropomorphic robotic arms (Stäubli). Vehicle-only plates, with DMSO being pin-transferred to columns 5 to 48, were inserted uniformly at the beginning and the end of each library in order to monitor and record any shifts in assay performance.

[3] = Homo sapiens, LOPAC library screening optimization, logarithm of AC50 (negative values), read-out: Log AC50 (converted)
[4] = Homo sapiens, LOPAC library screening optimization, read-out: AC50
[5] = LOPAC library screening optimization

| SMILES | SD from mean (ATXN2-luc, Z-score) (ATXN2-luc [1]) [SD] | also measured |
| --- | --- | --- |
| C[C@H]1CC[C@]2(NC1)O[C@H]1C[C@H]3[C@@H]4CC[C@H]5C[C@@H](O[C@@H]6O[C@H](CO)[C@H](O[C@@H]7O[C@H](CO)[C@@H](O)[C@H](O[C@@H]8OC[C@@H](O)[C@H](O)[C@H]8O)[C@H]7O[C@@H]7O[C@H](CO)[C@@H](O)[C@H](O)[C@H]7O)[C@H](O)[C@H]6O)CC[C@]5(C)[C@H]4CC[C@]3(C)[C@H]1[C@@H]2C [TOMATINE] | -4.999 | – |
| COc1cc(/C=C/C(=O)N2CCC=CC2=O)cc(OC)c1OC [Piperlongumine] | -2.973 | – |
| Nc1nc(=S)c2ncn([C@@H]3O[C@H](CO)[C@@H](O)[C@H]3O)c2[nH]1 [Thioguanosine] | – | AC50 (ATXN2-luc [2]; [3]): 3.55 µM; AC50 (ATXN2-luc [2]; [4]): 3.55 µM; Efficacy (ATXN2-luc [2]; [5]): -64.1845; Inf Activity (ATXN2-luc [2]; [5]): -62.8466 |
| N=C1C=CC(=C(c2ccc(N)cc2)c2ccc(N)cc2)C=C1 [PARAROSANILINE PAMOATE] | -2.740 | – |
| Br.CC1C2Cc3ccc(O)cc3C1(C)CCN2CCc1ccccc1 (single isomer, unassigned; (+)) [(+)-Phenazocine hydrobromide] | – | AC50 (ATXN2-luc [2]; [3]): 17.8 µM; AC50 (ATXN2-luc [2]; [4]): 17.8 µM; Efficacy (ATXN2-luc [2]; [5]): -59.8542; Inf Activity (ATXN2-luc [2]; [5]): -62.9667 |
| O=C1C=CC(=O)c2ccccc21 [4-NAPHTHOQUINONE] | -3.613 | – |
| COc1ccc(C[C@H](N)C(=O)N[C@H]2[C@@H](O)[C@H](n3cnc4c(N(C)C)ncnc43)O[C@@H]2CO)cc1 [PUROMYCIN HYDROCHLORIDE] | -3.716 | – |
| Oc1ccc2c3c1O[C@H]1c4[nH]c5ccccc5c4C[C@@]4(O)[C@@H](C2)N(CC2CC2)CC[C@]314 [Naltrindole hydrochloride] | – | AC50 (ATXN2-luc [2]; [3]): 14.1 µM; AC50 (ATXN2-luc [2]; [4]): 14.1 µM; Curve Class (ATXN2-luc [2]; LOPAC library (1,280 compounds) screening optimization, signed sub-classes (-1.1, -2.2, -3 ...)): -2.2; Log AC50 (ATXN2-luc [2]; LOPAC library screening optimization, logarithm of AC50 (negative values)): -4.75; AC50 (ATXN2-luc [2]; LOPAC library screening optimization, read-out: AC50): 17.8 µM |
| COc1cc([C@@H]2c3cc4c(cc3[C@@H](O[C@@H]3O[C@@H]5CO[C@@H](c6cccs6)O[C@H]5[C@H](O)[C@H]3O)[C@H]3COC(=O)[C@H]23)OCO4)cc(OC)c1O [TENIPOSIDE] | -2.832 | – |
| CC(C)=CCC[C@]1(C)C=Cc2c(O)c3c(c(CC=C(C)C)c2O1)O[C@]12C(=C[C@@H]4C[C@H]1C(C)(C)O[C@@]2(C/C=C(/C)C(=O)O)C4=O)C3=O [GAMBOGIC ACID] | -4.841 | – |
| CC[C@@]1(O)C[C@H](O)c2c(cc3c(c2O)C(=O)c2c(O)ccc(O)c2C3=O)[C@H]1C(=O)OC [RUTILANTINONE] | -2.722 | – |
| COc1ccc(C[C@H](N)C(=O)N[C@H]2[C@@H](O)[C@H](n3cnc4c(N(C)C)ncnc43)O[C@@H]2CO)cc1 [Puromycin dihydrochloride] | -4.723 | – |
| CC[C@@]1(O)C[C@H](O[C@H]2C[C@H](N(C)C)[C@H](O)[C@H](C)O2)c2c(cc3c(c2O)C(=O)c2c(O)cccc2C3=O)[C@H]1C(=O)OC [AKLAVINE HYDROCHLORIDE] | -3.741 | – |
| CCN(CC)CCCC(C)Nc1c2ccc(Cl)cc2nc2ccc(OC)cc12 (stereo not drawn) [Quinacrine dihydrochloride dihydrate] | -3.270 | – |
| CC(C)[N+](C)(CCC(C(N)=O)(c1ccccc1)c1ccccc1)C(C)C [ISOPROPAMIDE IODIDE] | -4.073 | – |
| O[C@H]1[C@H]2c3cc4c(cc3CN3CCC(=C[C@@H]1O)[C@H]23)OCO4 [Lycorine hydrochloride] | -2.968 | – |
| CC(=O)[C@]1(O)Cc2c(O)c3c(c(O)c2[C@@H](O[C@H]2C[C@H](N)[C@H](O)[C@H](C)O2)C1)C(=O)c1ccccc1C3=O [IDARUBICIN HCl] | -2.944 | – |
| Cc1c2ccncc2c(C)c2c1[nH]c1ccccc12 [Ellipticine] | -3.485 | – |
| COC(=O)[C@]1(C)CC[C@]2(C)CC[C@]3(C)C4=CC=C5C(=CC(=O)C(O)=C5C)[C@]4(C)CC[C@@]3(C)[C@@H]2C1 [PRISTIMERIN] | -3.883 | – |
| O=C1C=C2C(=CCOC2O)O1 (stereo not drawn) [PATULIN] | -3.651 | – |
| O=C(Nc1ccc([N+](=O)[O-])cc1Cl)c1cc(Cl)ccc1O [Niclosamide] | -4.393 | – |
| COC(=O)C[C@](O)(CCCC(C)(C)O)C(=O)O[C@@H]1C(OC)=C[C@]23CCCN2CCc2cc4c(cc2[C@H]13)OCO4 [HOMOHARRINGTONINE] | -3.117 | – |
| C[CH2][Hg][S]c1ccccc1C(=O)[O-].[Na+] [THIMEROSAL] | -5.645 | – |
